The values that follow come from the RepoRT retention time repository (doi:10.1016/j.foodchem.2021.129757).

What all share (settings): stereoisomer not certain
Data set [1] in a line: RP, Waters Atlantis T3, 100 × 2.1 mm, 3 µm, 40 °C, 0.3 mL/min, estimated dead time 0.73 min; A: water + 0.1% trifluoroacetic acid, pH 2; B: acetonitrile + 0.1% trifluoroacetic acid, pH 2; gradient (min/%B) 0/10 1/10 6/40 7/50 8/50 14/70 16/80 20/10 25/10.
Data set [2] can be described thus: RP, Agilent ZORBAX RRHD Eclipse Plus C18, 50 × 2.1 mm, 1.8 µm, 30 °C, 0.4 mL/min, estimated dead time 0.28 min; A: water + 0.1% formic acid, pH 3; B: acetonitrile + 0.1% formic acid, pH 3; gradient (min/%B) 0/1 5/10 8/25 9.1/99 10/99 12/1.
A short description of data set [3]: RP, Agilent ZORBAX RRHD Eclipse Plus C18, 50 × 2.1 mm, 1.8 µm, 30 °C, 0.4 mL/min, estimated dead time 0.28 min; A: water + 0.1% formic acid, pH 3; B: acetonitrile + 0.1% formic acid, pH 3; gradient (min/%B) 0/1 5/10 8/25 9.1/99 10/99 12/99.
The nature of data set [4]: RP, Phenomenex Kinetex EVO C18, 100 × 2.1 mm, 2.6 µm, 40 °C, 0.4 mL/min, estimated dead time 0.55 min; A: water + 0.2% formic acid; B: acetonitrile + 0.2% formic acid; gradient (min/%B) 0/5 0.5/5 7/95 8/95 8.5/5 12/5.
The nature of data set [5]: RP, Agilent InfinityLab Poroshell 120 EC-C18, 100 × 3 mm, 2.7 µm, 25 °C, 0.4 mL/min, estimated dead time 1.1 min; A: water + 0.1% formic acid, pH 3; B: acetonitrile + 0.1% formic acid, pH 3; gradient (min/%B) 0/5 10/25 20/40 24/90 25/90 26/5 30/5.
A short description of data set [6]: RP, Phenomenex Synergi Hydro-RP, 250 × 2 mm, 4 µm, 25 °C, 0.2 mL/min, estimated dead time 2.5 min; A: water + 0.1% formic acid, pH 3; B: acetonitrile + 0.1% formic acid, pH 3; gradient (min/%B) 0/0.5 7/0.5 12/12.5 25/16.3 47/35 48/65 50/65 50.1/0.5.
The nature of data set [7]: RP, Waters ACQUITY UPLC HSS T3, 100 × 2.1 mm, 1.8 µm, 30 °C, 0.4 mL/min, estimated dead time 0.55 min; A: water + 0.1% formic acid, pH 3; B: acetonitrile + 0.1% formic acid, pH 3; gradient (min/%B) 0/0 2/0 15/100 22/100 22.1/0 26/0.
The nature of data set [8]: RP, 150 × 2.1 mm, 2.6 µm, 40 °C, 0.35 mL/min, estimated dead time 0.94 min; A: water + 0.1% formic acid, pH 3; B: acetonitrile + 0.1% formic acid, pH 3; gradient (min/%B) 0/0 1/0 12.5/100 14/100 14.2/0 15/0.
The nature of data set [9]: RP, Waters ACQUITY UPLC HSS T3, 100 × 2.1 mm, 50 °C; A: water + 0.1% formic acid, pH 3; B: 30% methanol + 70% acetonitrile + 0.1% formic acid, pH 3; gradient (min/%B) 0/5 1/8 2/15 3/40 4/70 4.5/100 5/100 6.4/100 6.6/5 6.8/5 7/5.
A short description of data set [10]: RP, 150 × 2.1 mm, 2.6 µm, 40 °C, 0.35 mL/min, estimated dead time 0.94 min; A: water + 0.1% formic acid, pH 3; B: acetonitrile + 0.1% formic acid, pH 3; gradient (min/%B) 0/0 1/5 7/45 8.5/80 10.5/80 11/5 12/5.

In the case of `Oc1cc(O)c2c(c1)OC(c1ccc(O)c(O)c1)C(O)C2c1c(O)cc(O)c2c1OC(c1ccc(O)c(O)c1)C(O)C2c1c(O)cc(O)c2c1OC(c1ccc(O)c(O)c1)C(O)C2` (stereo not given) [Procyanidin C1], the LC retention time in [1] was 6.03 min.
For `O=C(O)CCc1ccc(O)c(OS(=O)(=O)O)c1` [Dihydrocaffeic acid-3-O-sulfate], the LC retention time in [2] is 5.08 min; in data set [3], 2.83 min; in [4], 4.04 min.
With `O=C(O)C1OC(Oc2ccc(C=Cc3cc(O)cc(O)c3)cc2)C(O)C(O)C1O` (stereo not given) [Resveratrol 4-O-glucuronide], the LC retention time is 9.05 min in data set [5] and 4.64 min in data set [4].
Regarding `CC(C)=CCc1c(O)cc(O)c2c1OC(c1ccc(O)cc1)CC2=O` (stereo not given) [8-prenylnaringenin], the LC retention time in [1] is 12.7 min.
With `COc1ccc(C=CC(=O)O)cc1OS(=O)(=O)O` [Isoferulic acid 3-O-sulfate], the LC retention time in [2] was 6.76 min; in data set [3], 5.94 min; in [4], 4.79 min.
For `COc1cc(C(=O)O)ccc1OS(=O)(=O)O` [Vanillic acid-4-O-sulfate], the LC retention time was 3.82 min in data set [2], 2 min in [3] and 3.13 min in [4].
`COc1cc(CCC(=O)O)ccc1OS(=O)(=O)O` [Dihydroferulic acid-4-O-Sulfate]: the LC retention time in data set [2] is 5.86 min; in data set [3], 4.05 min; in data set [4], 4.36 min.
Consider `COc1cc(C=CC(=O)O)ccc1OC1OC(C(=O)O)C(O)C(O)C1O` (stereo not given) [Ferulic acid-4-O-glucuronide], for which the LC retention time in data set [2] was 4.81 min; in data set [3], 3.24 min; in [4], 3.62 min.
Consider `O=C(O)C1OC(Oc2cc(O)cc(C=Cc3ccc(O)cc3)c2)C(O)C(O)C1O` (stereo not given) [Resveratrol 3-O-glucuronide], for which the LC retention time was 11 min in data set [5] and 4.85 min in [4].
Turning to `O=C(O)C=Cc1ccc(OC2OC(C(=O)O)C(O)C(O)C2O)c(O)c1` (stereo not given) [Caffeic acid-4-glucuronide], the LC retention time was 3.98 min in data set [2], 1.78 min in data set [3] and 2.45 min in data set [4].
`O=C(O)CCc1cccc(O)c1` [3-(3-hydroxyphenyl)propanoic acid]: the LC retention time is 29.5 min in [6]; 7.32 min in data set [2]; 7.28 min in data set [3]; 4.51 min in data set [4]; 9.17 min in data set [7].
In the case of `O=C(O)CCc1ccc(O)c(OC2OC(C(=O)O)C(O)C(O)C2O)c1` (stereo not given) [Dihydrocaffeic acid-3-O-glucuronide], the figures for the LC retention time in [2], in data set [3] and in data set [4] were 5.11 min, 3.94 min and 3.22 min, respectively.
On to `O=C1CC(c2ccc(O)cc2)Oc2cc(OC3OC(C(=O)O)C(O)C(O)C3O)cc(O)c21` (stereo not given) [Naringenin-7-O-glucuronide], for which, in data set [4], the LC retention time is 5.12 min.
On to `COc1ccc(C2CC(=O)c3c(O)cc(OC4OC(COC5OC(C)C(O)C(O)C5O)C(O)C(O)C4O)cc3O2)cc1` (stereo not given) [Didymin], for which the LC retention time in data set [1] is 9.08 min.
Regarding `COc1ccc(C2CC(=O)c3c(O)cc(O)cc3O2)cc1OC1OC(C(=O)O)C(O)C(O)C1O` (stereo not given) [Hesperetin 3'-O-glucuronide], the LC retention time in data set [5] is 12.2 min; in data set [4], 5.32 min.
For `O=C1CCC(Cc2cc(O)cc(OC3OC(C(=O)O)C(O)C(O)C3O)c2)O1` (stereo not given) [5-(5'-Hydroxyphenyl)-gamma-valerolactone-3'-glucuronide], the LC retention time in [4] is 2.34 min.
As for `O=c1oc2c(O)c(O)ccc2c2cc(O)c(O)cc12` [Urolithin  D], the LC retention time was 8.24 min in data set [5] and 4.68 min in [4].
Regarding `COc1cc(O)c(CC=C(C)C)c2c1C(=O)CC(c1ccc(O)cc1)O2` (stereo not given) [Isoxanthumol], in data set [1], the LC retention time was 11.1 min.
As for `COc1cc(C=CC(=O)O)ccc1OS(=O)(=O)O` [Ferulic acid 4-O-sulfate], the results for the LC retention time in data set [2], in [3] and in data set [4] were 6.22 min, 4.67 min and 4.59 min, respectively.
As for `O=C1CCC(Cc2cccc(OS(=O)(=O)O)c2)O1` (stereo not given) [5-Phenyl-gamma-valerolactone-3'-sulfate], in data set [4], the LC retention time is 4.96 min.
Consider `COc1ccc(C=CC(=O)O)cc1OC1OC(C(=O)O)C(O)C(O)C1O` (stereo not given) [Isoferulic acid-3-O-glucuronide], for which the LC retention time in [6] was 34.4 min; in [2], 6.36 min; in data set [3], 6.38 min; in [4] it was 4.25 min.
With `O=C1CCC(Cc2ccc(O)c(OS(=O)(=O)O)c2)O1` (stereo not given) [5-(4'-Hydroxyphenyl)-gamma-valerolactone-3'-sulfate], in [4], the LC retention time is 4.64 min.
Take `O=C1CCC(Cc2cccc(OC3OC(C(=O)O)C(O)C(O)C3O)c2)O1` (stereo not given) [5-Phenyl-gamma-valerolactone-3'-glucuronide]: the LC retention time in [4] was 4.31 min.
As to `O=C(O)c1ccc(O)c(OC2OC(C(=O)O)C(O)C(O)C2O)c1` (stereo not given) [Protocatechuic acid-3-O-glucuronide], the LC retention time in [2] was 2.8 min; in data set [3] it was 1.12 min; in data set [4] it was 1.44 min.
Regarding `O=C(O)c1ccc(OS(=O)(=O)O)cc1` [Hydroxybenzoic acid-4-sulfate], the LC retention time in data set [4] is 2.55 min.
Turning to `O=C(O)C1OC(Oc2ccc3c(c2)oc(=O)c2ccccc23)C(O)C(O)C1O` (stereo not given) [Urolithin B-3-O-glucuronide], the LC retention time was 11.6 min in [5] and 5.23 min in [4].
The matching figures for `O=S(=O)(O)Oc1cc(O)cc(C=Cc2ccc(O)cc2)c1` [Resveratrol 3-O-sulfate]: 8.93 min and 5.89 min.
In the case of `COc1ccc(CCC(=O)O)cc1OC1OC(C(=O)O)C(O)C(O)C1O` (stereo not given) [Dihydro isoferulic acid-3-O-glucuronide], the LC retention time was 6.49 min in data set [2], 6.53 min in [3] and 4.22 min in data set [4].
As to `O=Cc1ccc(O)c(O)c1` [3,4-Dihydroxybenzaldehyde], the values for the LC retention time in data set [2], in [3] and in [4] were 4.12 min, 3.73 min and 2.18 min, respectively.
Turning to `O=C1CCC(Cc2cc(O)cc(O)c2)O1` (stereo not given) [5-(3',5'-Dihydroxyphenyl)-gamma-valerolactone], the LC retention time in data set [4] was 3.72 min.
Consider `COc1ccc(C(=O)O)cc1OS(=O)(=O)O` [Isovanillic acid-3-O-sulfate], for which the LC retention time is 3.98 min in data set [2], 3.47 min in [3] and 3.68 min in data set [4].
As for `O=C1CCC(Cc2ccc(O)c(O)c2)O1` (stereo not given) [5-(3',4'-Dihydroxyphenyl)-gamma-valerolactone], the LC retention time in [4] is 4.13 min.
Take `O=C(O)c1ccc(OS(=O)(=O)O)c(O)c1` [Protocatechuic acid-4-O-sulfate]: the values for the LC retention time in data set [2], in data set [3] and in [4] were 2.44 min, 0.954 min and 2.38 min, respectively.
`O=C(O)CNC(=O)c1ccc(O)cc1` [4-Hydroxyhippuric acid]: the LC retention time is 3.82 min in data set [8]; 2.19 min in [9]; 3.19 min in data set [2]; 1.63 min in data set [3]; 1.55 min in [4]; 3.56 min in data set [10].
For the molecule `O=c1oc2cc(O)ccc2c2cc(O)c(O)cc12` [Urolithin C], the results for the LC retention time in [5] and in data set [4] were 10.3 min and 5.11 min, respectively.
